Tested on: Artemia franciscana
Test: Toxicity against Artemia franciscana nauplii larvae
Type: organism-based
Conditions: in vivo

CN1C(=O)N[C@@]2(O)[C@@H]3NC(=O)c4ccc(Br)n4[C@@H]3C[C@@]12O was tested, and the LC50 was 220 ppm.

Source: ChEMBL document CHEMBL1159203, “Agelastatins C and D, new pentacyclic bromopyrroles from the sponge Cymbastela sp., and potent arthropod toxicity of (-)-agelastatin A” (J Nat Prod, 1998)
